According to article PMC12524621 (2025):

Tests used:
Experiment in all cases: fluorescence light-up (580/640 nm)
[1] = system: CV30S_8 short-armed binary sensor + analyte (DNA, aptamer) AACTAGCTAATCCCACTTTAACGACCACCGGTGCGCCGTATTTTTT/AAAAAACAGGTAACTAGCGTCGTCGTTTTTCTGGGCATATCCAA/TCGGGCCTTGCGCGATTGGATATGCCCAGGTGGGATTAGCTAGTTGGTGGGGTAATGG; settings: 62.5 mM K+, 50 mM Na+, Mg2+ (concentration not stated); 25 mM Tris-HCl pH 7, incubated at 37 °C; analyte 1 µM; S/B 2.2
[2] = system: G4 parallel (Aptamer_G4_parallel) (DNA, G4) GGGTAGGGCGGGTTGGG; settings: 62.5 mM K+, 50 mM Na+, Mg2+ (concentration not stated); 25 mM Tris-HCl pH 7, ~22 °C, 1.7 µM each; S/B 1.9, poorest of three
[3] = system: CleavedCV30S_1 (m + f) (DNA, aptamer) AACGACCACCGGTGTTTTTT/AAAAAACGCCGTACAGGTAACTAGCGTCGTCGTT; settings: 62.5 mM K+, 50 mM Na+, Mg2+ (concentration not stated); 25 mM Tris-HCl pH 7; fourth best cleavage site
[4] = system: CV30S (Aptamer_CV30S) (DNA, aptamer) AACGACCACCGGTGCGCCGTACAGGTAACTAGCGTCGTCGTT; settings: 62.5 mM K+, 50 mM Na+, Mg2+ (concentration not stated); 25 mM Tris-HCl pH 7, ~22 °C, 1.7 µM each; S/B 7.8
[5] = system: CleavedCV30S_8 (m + f) (DNA, aptamer) AACGACCACCGGTGCGCCGTATTTTTT/AAAAAACAGGTAACTAGCGTCGTCGTT; settings: 62.5 mM K+, 50 mM Na+, Mg2+ (concentration not stated); 25 mM Tris-HCl pH 7; second best cleavage site
[6] = system: G4 parallel short-armed binary sensor + analyte (DNA, G4) AACTAGCTAATCCCACTTTTTTGGGTAGGG/GGGTTGGGTTTTTTCTGGGCATATCCAA/TCGGGCCTTGCGCGATTGGATATGCCCAGGTGGGATTAGCTAGTTGGTGGGGTAATGG; settings: 62.5 mM K+, 50 mM Na+, Mg2+ (concentration not stated); 25 mM Tris-HCl pH 7, incubated at 37 °C; analyte 1 µM; S/B 3
[7] = system: CleavedCV30S_2 (m + f) (DNA, aptamer) AACGACCACCGGTGCGCCGTTTTTTT/AAAAAAACAGGTAACTAGCGTCGTCGTT; settings: 62.5 mM K+, 50 mM Na+, Mg2+ (concentration not stated); 25 mM Tris-HCl pH 7; best of eight cleavage sites
[8] = system: CV30S_8 long-armed binary sensor + analyte (DNA, aptamer) TTACCCCACCAACTAGCTAATCCCACTTTAACGACCACCGGTGCGCCGTATTTTTT/AAAAAACAGGTAACTAGCGTCGTCGTTTTTCTGGGCATATCCAATCGCGCAA/TCGGGCCTTGCGCGATTGGATATGCCCAGGTGGGATTAGCTAGTTGGTGGGGTAATGG; settings: 62.5 mM K+, 50 mM Na+, Mg2+ (concentration not stated); 25 mM Tris-HCl pH 7, incubated at 55 °C; analyte 1 µM; S/B 2.1
[9] = system: G4 antiparallel short-armed binary sensor + analyte (DNA, G4) AACTAGCTAATCCCACTTTTTTAGGGTTAGG/GTTAGGGTTAGGGTTTTTTCTGGGCATATCCAA/TCGGGCCTTGCGCGATTGGATATGCCCAGGTGGGATTAGCTAGTTGGTGGGGTAATGG; settings: 37.5 mM K+, 50 mM Na+, Mg2+ (concentration not stated); 25 mM Tris-HCl pH 7, incubated at 37 °C; analyte 1 µM; S/B 3.2
[10] = system: G4 antiparallel long-armed binary sensor + analyte (DNA, G4) TTACCCCACCAACTAGCTAATCCCACTTTTTTAGGGTTAGG/GTTAGGGTTAGGGTTTTTTCTGGGCATATCCAATCGCGCAA/TCGGGCCTTGCGCGATTGGATATGCCCAGGTGGGATTAGCTAGTTGGTGGGGTAATGG; settings: 37.5 mM K+, 50 mM Na+, Mg2+ (concentration not stated); 25 mM Tris-HCl pH 7, incubated at 55 °C; analyte 1 µM; S/B 3.3
[11] = system: G4 parallel long-armed binary sensor + analyte (DNA, G4) TTACCCCACCAACTAGCTAATCCCACTTTTTTGGGTAGGG/GGGTTGGGTTTTTTCTGGGCATATCCAATCGCGCAA/TCGGGCCTTGCGCGATTGGATATGCCCAGGTGGGATTAGCTAGTTGGTGGGGTAATGG; settings: 62.5 mM K+, 50 mM Na+, Mg2+ (concentration not stated); 25 mM Tris-HCl pH 7, incubated at 55 °C; analyte 1 µM; S/B 3.3
[12] = system: CleavedCV30S_3 (m + f) (DNA, aptamer) AACGACCACCGGTGCGCCGTACAGGTTTTTTT/AAAAAAAACTAGCGTCGTCGTT; settings: 62.5 mM K+, 50 mM Na+, Mg2+ (concentration not stated); 25 mM Tris-HCl pH 7; third best cleavage site
[13] = system: G4 antiparallel (Aptamer_G4_antiparallel) (DNA, G4) AGGGTTAGGGTTAGGGTTAGGG; settings: 37.5 mM K+, 50 mM Na+, Mg2+ (concentration not stated); 25 mM Tris-HCl pH 7, ~22 °C, 1.7 µM each; S/B 8.7

Measured: binding

CN(C)c1ccc(C(=C2C=CC(=[N+](C)C)C=C2)c2ccc(N(C)C)cc2)cc1
yes: [1] | [2] | [3] | [4] | [5] | [6] | [7] | [8] | [9] | [10] | [11] | [12] | [13]
